Key:
CP24 (CP24-his tag) [1] = target: T1, CP24 (CP24-his tag) (Arabidopsis thaliana, UniProt Q9LMQ2); test: co-purified pigment, HPLC and absorption fit of acetone extract; type: binding; details: complex from light-stressed plants (30 min high light), pH 5.5, 4 °C; endogenous pigment; peripheral, not in internal L1/L2 sites
T1 construct: gene LHCB6; mature thylakoid protein (transit peptide removed in vivo), C-terminal His tag kept; purified from plant thylakoids by sucrose gradient (Band 2) and Ni column; monomer
T1 sequence (Q9LMQ2 50-258): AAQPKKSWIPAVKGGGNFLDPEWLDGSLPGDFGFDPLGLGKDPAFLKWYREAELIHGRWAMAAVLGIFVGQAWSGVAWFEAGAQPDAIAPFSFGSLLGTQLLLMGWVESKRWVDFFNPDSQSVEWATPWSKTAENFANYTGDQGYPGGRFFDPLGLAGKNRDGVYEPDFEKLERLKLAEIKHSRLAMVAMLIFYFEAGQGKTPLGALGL

CP24 (CP24-his tag) [2] = target: T1, CP24 (CP24-his tag); test: as above; type: binding; details: complex from control plants; endogenous pigment
Excerpt: co-purified pigment, HPLC and absorption fit of acetone extract on CP24 (CP24-his tag)

Compound	Z (CP24 (CP24-his tag) [1])	V (CP24 (CP24-his tag) [2])
CC1=C(/C=C/C(C)=C/C=C/C(C)=C/C=C/C=C(C)/C=C/C=C(C)/C=C/C2=C(C)C[C@@H](O)CC2(C)C)C(C)(C)C[C@H](O)C1 [Z, zeaxanthin]	0.20 ± 0.00 mol per monomer (normalised to 10 Chl)	–
CC1=C[C@H](O)CC(C)(C)[C@H]1/C=C/C(C)=C/C=C/C(C)=C/C=C/C=C(C)/C=C/C=C(C)/C=C/C1=C(C)C[C@@H](O)CC1(C)C [L, lutein]	–	0.89 ± 0.02 mol per monomer (normalised to 10 Chl)
CC(/C=C/C=C(C)/C=C/[C@@]12O[C@]1(C)C[C@@H](O)CC2(C)C)=C\C=C\C=C(C)\C=C\C=C(C)\C=C\[C@@]12O[C@]1(C)C[C@@H](O)CC2(C)C [V, violaxanthin]	–	0.89 ± 0.02 mol per monomer (normalised to 10 Chl)

Source: publication PMC4555179, “Molecular insights into Zeaxanthin-dependent quenching in higher plants” (Scientific Reports, 2015)
